The values that follow come from patent US11059830B2, “Compounds that participate in cooperative binding and uses thereof” (Revolution Medicines, Inc., priority 2015, dated 2021).

By Kd is commonly meant the concentration at which binding is half-saturated. In general, koff refers to a measure of how fast the partners let go of each other. Read a high koff as fast dissociation.

Some results are limits rather than exact numbers.

The target in assay [1] is T1, FKBP12 (Homo sapiens (Human), UniProt P62942). Description: SPR binding of compound (analyte) to immobilized FKBP12 (Example 7). Conditions: 25° C., 12×HIS tagged FKBP12 immobilized on NTA chip; read-out: SPR affinity to FKBP12: KD. The procedure: This protocol utilizes Surface Plasmon Resonance (SPR) as a method to determine kinetics (KD, Ka, Kd) for the binding of compound (analyte) to immobilized FKBP12 (ligand).
T1 sequence (P62942 whole entry): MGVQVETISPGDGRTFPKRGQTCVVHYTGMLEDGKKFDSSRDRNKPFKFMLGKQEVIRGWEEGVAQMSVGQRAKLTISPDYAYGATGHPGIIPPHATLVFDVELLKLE
Compound in 100% DMSO (in-house), 10×HBS-P+ buffer (GE Healthcare BR-1006-71), Assay buffer (1×HBS-P+ buffer, 1% DMSO), 12×HIS tagged FKBP12 (in-house).
(§1) Experiments are performed at 25° C. Stock solution of 12×HIS tagged FKBP12 is diluted to 100 nM in assay buffer (1% DMSO final). Approximately 500-600 RU of FKBP12 is immobilized on one of two flow cells of an activated NTA chip. The second flow cell is not activated as a reference for non-specific interaction of the analyte to the sensor chip. Various concentrations of compound (1 nM-1 μM range), serially diluted into the same assay buffer (1% DMSO final), are injected onto the FKBP12 surface and reference surface at a flow rate of 10 μl/min. The surface is regenerated between analyte injections with 350 mM EDTA.
(§2) The BiaEvaluation software program is used for data fitting. All data is reference subtracted against both the reference flow cell and a buffer injection. For kinetic analyses, data is locally fit to a 1:1 interaction model.
Background: In SPR one partner is held on a chip, and binding of the other changes the refractive index at the surface.

In assay [2] the target is T1, FKBP12. Description: AlphaLISA FKBP12 binding: inhibition of binding of biotinylated FK506 to FLAG tagged FKBP12. To be noted: read-out: Binding affinity to FKBP12 (by displacement of FK506). An excerpt:
The binding of compounds of the invention to FKBP12 can be determined using the following protocol.
This protocol utilizes Perkin Elmers AlphaLISA technology platform to detect FKBP binders by measuring the inhibition of binding of biotinylated FK506 to FLAG tagged FKBP12.
10×TBST Buffer (Boston BioProducts IBB-181), Biotinylated FK506 (in-house), FLAG tagged FKBP (in-house); anti-FLAG Donor beads (Perkin Elmer AS103) and Streptavidin Acceptor beads (Perkin Elmer AL125); Compounds in DMSO (in-house), FK506.
Experimental Protocol/Description of Assay: Add 20 uL of 12.5 nM FKBP-FLAG working stock to each well of the 96-well plate. Add 1 uL of test compound (100% DMSO) to each well of the plate using the Janus MTD head and P20 tips (except control wells). Add 1 uL of DMSO to negative control wells and 1 uL of 50 uM FK506 solution to positive control wells. In the dark, add 20 uL of combined Donor/Acceptor beads to each well. Incubate in the dark for 30 minutes at room temperature. In the dark, add 10 uL of 5 nM biotinylated FK506 working stock to each well. Incubate in the dark for 60 minutes at room temperature. Protect plate from light until reading on Biotek Synergy2 Plate Reader; Alphalisa 96-well protocol (680 excitation/615 emission).

The next assay deals with HeLa-FKBP12 cells. Description: Biosensor cell permeability assay (FKBP destabilizing mutant, whole cell). Type of assay: cell-based. To be noted: 72 hrs. The method, then:
Cell permeability of compounds can be determined using the following protocol.
This protocol utilizes a modified FKBP or cyclophilin destabilizing mutant to determine the bioactivity of FKBP binding compounds or cyclophilin binding compounds in whole cell assay.
DMEM, DMEM without Phenol Red, 10% FBS, 1× Sodium Pyruvate, 1× Glutamax. Add 125 ul of media with compound per well.
Experimental Protocol/Description of Assay: Plate HeLa-FKBP12 cells (for FKBP binding compounds) or HeLa-CyclophilinA cells (for cyclophilin binding compounds) and seed overnight at 5k/well (approximately −18 hrs.). Using a multi-channel pipet, take out the old media and add ˜125 ul of new media with compounds. Compounds are diluted using DMEM without Phenol Red, 10% FBS, 1× Sodium Pyruvate, lx Glutamax. Add 125 ul of media with compound per well. Cells are treated with compounds at concentration: 30, 10, 3.33, 1.11, 0.37, 0.12, 0.04 and 0.013 uM. Time points are taken at 72 hrs and plate read using plate reader with excitation/emission: 575/620.
Cell binding/permeability is calculated in fold-change (Total RFU of treated samples/total RFU of DMSO treated samples or total RFU above background (Total RFU minus total RFU of DMSO treated samples).

The target in assay [3] is CEP25029.4 (residues 1982-2231) (Homo sapiens (Human), UniProt P62942+Q9BV73). Description: ITC binding of FKBP12-compound binary complex to CEP250. The procedure: (§3) This protocol utilizes Isothermal Titration Calorimetry (ITC) to directly measure the heat change associated with binding of FKBP12-Compound 2 and FKBP12-Compound 6 binary complexes to CEP250. Measurement of the heat change allows accurate determination of association constants (Ka), reaction stoichiometry (N), and the change in binding enthalpy (ΔH).
CEP25029.4 (residues 1982-2231), sequence (Q9BV73 1982-2231): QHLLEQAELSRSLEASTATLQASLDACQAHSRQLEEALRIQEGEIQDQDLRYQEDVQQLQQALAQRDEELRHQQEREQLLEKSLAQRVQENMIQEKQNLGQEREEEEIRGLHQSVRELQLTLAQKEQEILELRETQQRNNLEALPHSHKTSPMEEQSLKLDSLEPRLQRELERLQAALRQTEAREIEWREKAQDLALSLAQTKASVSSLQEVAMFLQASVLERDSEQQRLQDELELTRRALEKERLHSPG
CEP25029.4 (residues 1982-2231), sequence (P62942 whole entry, the tested form may be a part): as the sequence (P62942 whole entry) above
(§4) Compound 2 and Compound 6 in 100% DMSO (in-house), Protein Buffer (10 mM HEPES, pH 7.5, 75 mM NaCl, 0.5 mM TCEP), assay buffer (protein buffer+1% DMSO), FKBP12 (in-house), CEP25029.4 (residues 1982-2231) and CEP25011.4 (residues 2134-2231) (in-house).
(§5) MicroCal™ ITC200 (GE Healthcare) Experimental Protocol: FKBP12 stock solution was diluted to 10 μM in assay buffer (1% DMSO final). Compound was added to FKBP12 to 20 μM (1% DMSO final), and binary complex was filled into the reaction cell of the ITC device after 5-10 min pre-incubation time. CEP250 protein stocks were diluted to 50 μM in assay buffer and supplemented with 20 μM compound (1% DMSO final) before being filled into the injection syringe. A control experiment in the absence of compound was also run to determine the heat associated with operational artifacts and the dilution of titrant as it was injected from the syringe into the reaction cell.

The target of assay [4] is CEP25011.4 (residues 2134-2231) (Homo sapiens (Human), UniProt P62942+Q9BV73). The assay is described as above. The procedure: as §3, §4, §5
CEP25011.4 (residues 2134-2231), sequence (Q9BV73 2134-2231): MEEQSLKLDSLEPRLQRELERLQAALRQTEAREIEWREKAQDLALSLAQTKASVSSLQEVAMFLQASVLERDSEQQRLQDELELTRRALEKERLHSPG
CEP25011.4 (residues 2134-2231), sequence (P62942 whole entry, the tested form may be a part): as the sequence (P62942 whole entry) above
The target in assay [5] is T1, FKBP12. Description: SPR kinetics of Compound 2 and Compound 6 binding to immobilized FKBP12 (Example 8). Conditions: compound to immobilized FKBP12, 25° C. The procedure:
This protocol utilizes Surface Plasmon Resonance (SPR) as a method to determine kinetics (KD, Ka, Kd) for the binding of Compound 2 and Compound 6 (analyte) to immobilized FKBP12 (ligand).
Compound 2 and Compound 6 in 100% DMSO (in-house), 10×HBS-P+ buffer (GE Healthcare BR-1006-71), Assay buffer (1×HBS-P+ buffer, 1% DMSO), 12×HIS tagged FKBP12 (in-house).
as §1, with “Compound 2 or Compound 6” for “compound”
as §2

In the case of `CC[C@H](Cc1ccccc1)[C@@H]1/C=C/C/C=C/C(=O)[C@@H](C)[C@H](O)[C@@H](C)[C@@H]2CC[C@@H](C)[C@@](O)(O2)C(=O)C(=O)N2CCCC[C@H]2C(=O)O1` [Compound 3], the Kd at FKBP12 [1] was found to be 1.3 nM. For the same molecule, at FKBP12 [2], the IC50 was found to be 0.34 nM.

On to `CC[C@H](Cc1ccccc1)[C@@H]1CCCCCC(=O)[C@@H](C)[C@H](O)[C@@H](C)[C@@H]2CC[C@@H](C)C(O)(O2)C(=O)C(=O)N2CCCC[C@H]2C(=O)O1` [Compound 10, (S)-1-(2-((2R,3R,6S)-6-((2R,3R,4S,6E,9E,11R,12R)-12-benzyl-3,11-dihydroxy-4-methyl-5-oxotetradeca-6,9-dien-2-yl)-2-hydroxy-3-methyltetrahydro-2H-pyran-2-yl)-2-oxoacetyl)piperidine-2-carboxylic acid C-11 lactone], for which the IC50 on FKBP12 [2] was 0.21 nM.

With `CCC(Cc1ccccc1)C1/C=C/C/C=C/CC(C)C(O)C(C)C2CCC(C)C(O)(CC(=O)N3CCCCC3C(=O)O1)O2` (stereo not shown) [Compound 1], at FKBP12 [1], the Kd stood at 71.5 nM. Besides, the IC50 at FKBP12 [2] is 355 nM.

Turning to `CC[C@H](Cc1ccccc1)[C@@H]1/C=C/C/C=C/C[C@@H](C)[C@H](O)[C@@H](C)[C@@H]2CC[C@@H](C)C(=O)C(O)(O2)C(=O)N2CCC[C@H]2C(=O)O1` [Compound 4], the Kd at FKBP12 [1] came to 23.1 nM. In addition, the IC50 at FKBP12 [2] is 4.8 nM.

For the molecule `CC[C@H](Cc1ccccc1)[C@@H]1/C=C/C/C=C/C[C@@H](C)C(=O)[C@@H](C)[C@@H]2CC[C@@H](C)[C@@](O)(O2)C(=O)C(=O)N2CCCC[C@H]2C(=O)O1` [Compound 9], the IC50 in the assay on HeLa-FKBP12 cells is > 1000 nM; on FKBP12 [2], 785 nM.

For `CC[C@H](Cc1ccccc1)[C@@H]1CCCCCC[C@@H](C)[C@H](O)[C@@H](C)[C@@H]2CC[C@@H](C)C(=O)C(O)(O2)C(=O)N2CCCC[C@H]2C(=O)O1` [Compound 6, (2S)-1-((4R,7S)-7-((2R,3S,4R,11 S,12R)-12-benzyl-3,11-dihydroxy-4-methyltetradecan-2-yl)-2-hydroxy-4-methyl-3-oxooxepane-2-carbonyl)piperidine-2-carboxylic acid C-11 lactone], the Kd amounted to 360 nM in assay [3] and 80 nM in assay [4]. Also, the ΔH in assay [3] (ITC, FKBP12 10 μM in cell, CEP25029.4 118 μM in syringe, ligand 20 μM, 298 K) is -58.48 kJ/mol; in assay [4] (ITC, FKBP12 10 μM in cell, CEP25011.4 68 μM in syringe, ligand 20 μM, 298 K), -47.78 kJ/mol. The ΔG in assay [3] (ITC, FKBP12 10 μM, CEP25029.4 118 μM, ligand 20 μM, 298 K, ΔG = −RT ln Ka) is -36.74 kJ/mol; in assay [4] (ITC, FKBP12 10 μM, CEP25011.4 68 μM, ligand 20 μM, 298 K, ΔG = −RT ln Ka), -40.36 kJ/mol. For the same molecule, the “−T*ΔS” value in assay [3] (ITC, FKBP12 10 μM, CEP25029.4 118 μM, ligand 20 μM, 298 K, −TΔS = ΔG − ΔH) came to 21.73 kJ/mol; in assay [4] (ITC, FKBP12 10 μM, CEP25011.4 68 μM, ligand 20 μM, 298 K, −TΔS = ΔG − ΔH) it was 7.41 kJ/mol. Moreover, the koff on FKBP12 [5] amounted to 0.0088 s⁻¹. Further, the kon at FKBP12 [5] (read-out: Ka) turned out to be 567000 M⁻¹ s⁻¹.

`CC[C@H](Cc1cccc(O)c1)[C@@H]1/C=C/C/C=C/C[C@@H](C)[C@H](O)[C@@H](C)[C@@H]2CC[C@@H](C)C(=O)[C@@](O)(O2)C(=O)N2CCCC[C@H]2C(=O)O1` [Compound 7]: the figures for the IC50 in the assay with HeLa-FKBP12 cells and on FKBP12 [2] were < 1000 nM and 0.95 nM, respectively.

On to `CC[C@H](Cc1cccc(O)c1)[C@@H]1/C=C/C/C=C/C[C@@H](C)[C@H](O)[C@@H](C)[C@@H]2CC[C@@H](C)[C@@](O)(O2)C(=O)C(=O)N2CCCC[C@H]2C(=O)O1` [Compound 8], for which the IC50 is < 1000 nM with HeLa-FKBP12 cells and 1.1 nM at FKBP12 [2].

In the case of `CC[C@H](Cc1ccccc1)[C@@H]1/C=C/C=C/CC(=O)[C@@H](C)[C@H](O)[C@@H](C)[C@@H]2CC[C@@H](C)C(=O)C(O)(O2)C(=O)N2CCCC[C@H]2C(=O)O1` [Compound 5], the Kd on FKBP12 [1] is 7 nM. On FKBP12 [2], the IC50 was determined as 18.8 nM.
